Among the data in patent US20220324835A1 (Nurix Therapeutics, Inc., priority 2018, published 2022) are IC50 and Kd values, retold here.

The target in assay [1] is T1, Cbl-b (Homo sapiens, UniProt Q13191). Kind of assay: Cbl-b inhibition assay (Cbl-b activity assay, FRET, Biological Example 1; 100 mM NaCl, 60 nM Src kinase). In kind it is biochemical. To be noted: upper bound stated in text lists; read-out: IC50 values in the Cbl-b inhibition assay of Biological Example 1. A digest of the protocol:
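Inhibition is read as loss of FRET signal. The signal arises when Src-phosphorylated, N-terminal biotinylated Avi-Cbl-b (captured by streptavidin-terbium) binds UbcH5B carrying covalently linked Bodipy-Fluorescein-tagged ubiquitin.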

The target of assay [2] is T1, Cbl-b. Kind of assay: Cbl-b activity assay (Cbl-b inhibition assay), TR-FRET of Cbl-b interaction with UbcH5B-Ub. In kind it is biochemical. To be noted: for pIC50: assay buffer with 100 mM NaCl, 60 nM Src kinase, read-out: Cbl-b activity IC50; for IC50: * assay buffer containing 50 mM NaCl instead of 100 mM NaCl and 30 nM Src kinase instead of 60 nM, read-out: Cbl-b activity IC50 (μM)*. A digest of the protocol:
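Compound-treated Cbl-b was incubated 1.5 h with Src kinase (60 nM final; 30 nM for asterisked values, which also used 50 mM instead of 100 mM NaCl), 1 mM ATP and 5 mM MgCl2. Binding to fluorescent Ub-loaded UbcH5B (C85K mutant) was then read by TR-FRET after 1 h more.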
(In general: Time-resolved FRET reads energy transfer from a long-lived donor to a nearby acceptor.)

The next assay has as its target Cbl-b (residues 36-427) (Homo sapiens, UniProt Q13191). Kind of assay: Cbl-b binding assay (SPR, Biacore T200). To be noted: 20° C., 1:1 binding model. A digest of the protocol: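 NeutrAvidin capture chip, 20° C; 50 s injections at 50 μl/min, 90-180 s dissociation; 0.3 M NaCl regeneration. Asterisked column: 50 mM NaCl buffer and 30 nM Src kinase in place of 100 mM NaCl and 60 nM Src kinase. 1:1 fit.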
(Surface plasmon resonance follows binding to a sensor surface in real time, without labels.)

Molecules are shown by their SMILES. pIC50, pKd: −log10 of the molar value.

Sequence of Cbl-b (residues 36-427) (Q13191 36-427): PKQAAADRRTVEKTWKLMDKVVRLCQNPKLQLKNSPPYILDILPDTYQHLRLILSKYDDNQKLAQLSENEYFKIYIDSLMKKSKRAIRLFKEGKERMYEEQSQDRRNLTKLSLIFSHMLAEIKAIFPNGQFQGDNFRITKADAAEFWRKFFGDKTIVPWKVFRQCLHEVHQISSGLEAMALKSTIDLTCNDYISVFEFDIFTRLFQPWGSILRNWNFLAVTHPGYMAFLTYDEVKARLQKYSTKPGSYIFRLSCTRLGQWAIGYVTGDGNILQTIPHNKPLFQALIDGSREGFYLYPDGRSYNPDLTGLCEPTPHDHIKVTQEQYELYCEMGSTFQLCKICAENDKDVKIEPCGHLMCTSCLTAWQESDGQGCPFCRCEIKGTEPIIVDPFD
T1 sequence (Q13191 36-427): as above

By pIC50 is commonly meant the negative decadic logarithm of the IC50, by convention in mol/L. For orientation: pKd means the negative decadic logarithm of the Kd, by convention in mol/L. Higher therefore signals a low Kd. Turning to `C[C@H](Sc1nncn1C)c1ccnc(NC(=O)c2cc(C(F)(F)F)c3ccccc3n2)c1` [Compound 111, (S)-N-(4-(1-((4-methyl-4H-1,2,4-triazol-3-yl)thio)ethyl)pyridin-2-yl)-4-(trifluoromethyl)quinoline-2-carboxamide], the negative logarithm of the IC50 (pIC50) at Cbl-b [1] was ≥ 5.00; at Cbl-b [2], 5.00 to 5.52. Besides, on Cbl-b (residues 36-427), the negative logarithm of the Kd (pKd) is 5.00 to 5.52.

By IC50 is commonly meant the concentration needed to halve the response being measured. `C[C@H](Sc1nncn1C)c1ccnc(NC(=O)c2ccc3ccccc3n2)c1` [Compound 112, (S)-N-(4-(1-((4-methyl-4H-1,2,4-triazol-3-yl)thio)ethyl)pyridin-2-yl)quinoline-2-carboxamide]: the pIC50 at Cbl-b [1] is ≥ 6.00. For the same compound, on Cbl-b [2], the half-inhibitory concentration (IC50) is 1 to 3 µM and the pIC50 is 6.00 to 6.52. Also, the pKd at Cbl-b (residues 36-427) was 5.00 to 5.52.

`C[C@H](Sc1nncn1C)c1ccnc(NC(=O)c2cc(C(F)(F)F)c(Cl)cn2)c1` [Compound 114, (S)-5-chloro-N-(4-(1-((4-methyl-4H-1,2,4-triazol-3-yl)thio)ethyl)pyridin-2-yl)-4-(trifluoromethyl)picolinamide]: the figures for the pIC50 at Cbl-b [1] and on Cbl-b [2] were ≥ 5.00 and 5.00 to 5.52, respectively. In addition, the negative-log Kd (pKd) on Cbl-b (residues 36-427) is < 5.00.

As for `C[C@H](Sc1nncn1C)c1ccnc(NC(=O)c2cccc(S(F)(F)(F)(F)F)c2)c1` [Compound 116, N-[4-[(1S)-1-[(4-methyl-1,2,4-triazol-3-yl)sulfanyl]ethyl]-2-pyridyl]-3-(pentafluoro-λ^6-sulfanyl)benzamide], the pIC50 is ≥ 5.00 on Cbl-b [1] and 5.00 to 5.52 at Cbl-b [2]. At Cbl-b (residues 36-427), the pKd was 5.00 to 5.52.

Turning to `C[C@H](Sc1nncn1C)c1ccnc(NC(=O)c2cccc(C3CC3)n2)c1` [Compound 117, 6-cyclopropyl-N-[4-[(1S)-1-[(4-methyl-1,2,4-triazol-3-yl)sulfanyl]ethyl]-2-pyridyl]pyridine-2-carboxamide], the negative logarithm of the IC50 (pIC50) was ≥ 5.00 at Cbl-b [1] and 5.52 to 6.00 on Cbl-b [2]. Moreover, the negative logarithm of the Kd (pKd) on Cbl-b (residues 36-427) was 5.00 to 5.52.

As to `C[C@H](Sc1nncn1C)c1ccnc(NC(=O)c2nc3ccccc3s2)c1` [Compound 121, N-[4-[(1S)-1-[(4-methyl-1,2,4-triazol-3-yl)sulfanyl]ethyl]-2-pyridyl]-1,3-benzothiazole-2-carboxamide], the figures for the negative logarithm of the IC50 (pIC50) at Cbl-b [1] and at Cbl-b [2] were ≥ 5.00 and 5.00 to 5.52, respectively. Moreover, at Cbl-b (residues 36-427), the pKd was 5.00 to 5.52.

For `C[C@H](Sc1nncn1C)c1ccnc(NC(=O)c2cccc(OC(F)(F)F)n2)c1` [Compound 122, (S)-N-(4-(1-((4-methyl-4H-1,2,4-triazol-3-yl)thio)ethyl)pyridin-2-yl)-6-(trifluoromethoxy)picolinamide], the pIC50 on Cbl-b [1] was ≥ 5.00; at Cbl-b [2], 5.52 to 6.00. The compound also showed a pKd at Cbl-b (residues 36-427) of 5.52 to 6.00.

As for `CCc1cccc(C(=O)Nc2cc([C@H](C)Sc3nncn3C)ccn2)n1` [Compound 123, (S)-6-ethyl-N-(4-(1-((4-methyl-4H-1,2,4-triazol-3-yl)thio)ethyl)pyridin-2-yl)picolinamide], the pIC50 was ≥ 5.00 on Cbl-b [1] and 5.52 to 6.00 on Cbl-b [2]. In addition, at Cbl-b (residues 36-427), the negative logarithm of the Kd (pKd) was 5.00 to 5.52.

On to `C[C@H](Sc1nncn1C)c1ccnc(NC(=O)c2cccc(Cl)n2)c1` [Compound 124, 6-chloro-N-[4-[(LV)-1-[(4-methyl-1,2,4-triazol-3-yl)sulfanyl]ethyl]-2-pyridyl]pyridine-2-carboxamide], for which the values for the pIC50 on Cbl-b [1] and on Cbl-b [2] were ≥ 5.00 and 5.52 to 6.00, respectively. The pKd at Cbl-b (residues 36-427) was 5.00 to 5.52.

In the case of `COc1nc(C(=O)Nc2cc([C@H](C)Sc3nncn3C)ccn2)ccc1Cl` [Compound 125, (S)-5-chloro-6-methoxy-N-(4-(1-((4-methyl-4H-1,2,4-triazol-3-yl)thio)ethyl)pyridin-2-yl)picolinamide], the values for the negative logarithm of the IC50 (pIC50) at Cbl-b [1] and at Cbl-b [2] were ≥ 5.00 and 5.52 to 6.00, respectively. The negative-log Kd (pKd) at Cbl-b (residues 36-427) is 5.00 to 5.52.

For `C[C@H](Sc1nncn1C)c1ccnc(NC(=O)c2cc(N3CC[C@H](O)C3)cc(C(F)(F)F)n2)c1` [Compound 126, 4-[(3S)-3-hydroxypyrrolidin-1-yl]-N-[4-[(1S)-1-[(4-methyl-1,2,4-triazol-3-yl)sulfanyl]ethyl]-2-pyridyl]-6-(trifluoromethyl)pyridine-2-carboxamide], the values for the negative logarithm of the IC50 (pIC50) at Cbl-b [1] and on Cbl-b [2] were ≥ 5.00 and 5.52 to 6.00, respectively. Also, the pKd at Cbl-b (residues 36-427) was 5.00 to 5.52.

Regarding `C=CCC(Sc1nncn1C)c1cccc(NC(=O)c2ccc3ccccc3n2)c1` (stereo not drawn) [Compound 134, N-[3-[1-[(4-methyl-1,2,4-triazol-3-yl)sulfanyl]but-3-enyl]phenyl]quinoline-2-carboxamide], on Cbl-b [1], the pIC50 was ≥ 5.00. Further, at Cbl-b [2], the IC50 is 1 to 3 µM and the pIC50 was 5.52 to 6.00. The negative logarithm of the Kd (pKd) on Cbl-b (residues 36-427) is < 5.00.

`C=CCC(Sc1nncn1C)c1cccc(NC(=O)c2cc3ccccc3cn2)c1` (stereo not drawn) [Compound 135, N-[3-[1-[(4-methyl-1,2,4-triazol-3-yl)sulfanyl]but-3-enyl]phenyl]isoquinoline-3-carboxamide]: the pIC50 at Cbl-b [1] is ≥ 5.00; at Cbl-b [2], 5.52 to 6.00. Besides, on Cbl-b [2], the half-maximal inhibitory concentration (IC50) lay in the range of 3 to 10 µM. In addition, on Cbl-b (residues 36-427), the negative logarithm of the Kd (pKd) is < 5.00.

For `C[C@H](Sc1nncn1C)c1cccc(NC(=O)c2cc(C(=O)N3CCCC3)ccn2)c1` [Compound 138, (S)-N-(3-(1-((4-methyl-4H-1,2,4-triazol-3-yl)thio)ethyl)phenyl)-4-(pyrrolidine-1-carbonyl)picolinamide], the pIC50 on Cbl-b [1] is ≥ 5.00; on Cbl-b [2], 5.00 to 5.52. The pKd on Cbl-b (residues 36-427) is < 5.00.

As to `C[C@H](Sc1nncn1C)c1cccc(NC(=O)c2cc(C(=O)N3CC[C@@H](O)C3)ccn2)c1` [Compound 139, 4-((R)-3-hydroxypyrrolidine-1-carbonyl)-N-(3-((S)-1-((4-methyl-4H-1,2,4-triazol-3-yl)thio)ethyl)phenyl)picolinamide], the pIC50 at Cbl-b [1] was ≥ 5.00; on Cbl-b [2] it was 5.00 to 5.52. The same compound had a pKd at Cbl-b (residues 36-427) of 5.00 to 5.52.

Take `CO[C@@H]1CCN(C(=O)c2ccnc(C(=O)Nc3cccc([C@H](C)Sc4nncn4C)c3)c2)C1` [Compound 141, 4-((R)-3-methoxypyrrolidine-1-carbonyl)-N-(3-((S)-1-((4-methyl-4H-1,2,4-triazol-3-yl)thio)ethyl)phenyl)picolinamide]: the negative logarithm of the IC50 (pIC50) was ≥ 5.00 on Cbl-b [1] and 5.00 to 5.52 on Cbl-b [2]. The compound also had a pKd at Cbl-b (residues 36-427) of 5.00 to 5.52.

In the case of `C[C@H](Sc1nncn1C)c1cccc(NC(=O)c2cc(C(=O)N3CCC3)ccn2)c1` [Compound 143, (S)-4-(azetidine-1-carbonyl)-N-(3-(1-((4-methyl-4H-1,2,4-triazol-3-yl)thio)ethyl)phenyl)picolinamide], the negative-log IC50 (pIC50) is ≥ 5.00 on Cbl-b [1] and 5.00 to 5.52 on Cbl-b [2]. The compound also had a pKd at Cbl-b (residues 36-427) of 5.00 to 5.52.

Consider `C[C@H](Sc1nncn1C)c1cccc(NC(=O)c2cc(C(=O)N3CCCCC3)ccn2)c1` [Compound 144, (S)-N-(3-(1-((4-methyl-4H-1,2,4-triazol-3-yl)thio)ethyl)phenyl)-4-(piperidine-1-carbonyl)picolinamide], for which the values for the negative logarithm of the IC50 (pIC50) at Cbl-b [1] and at Cbl-b [2] were ≥ 5.00 and 5.00 to 5.52, respectively. The negative logarithm of the Kd (pKd) on Cbl-b (residues 36-427) was 5.00 to 5.52.

As for `C[C@H](Sc1nncn1C)c1cccc(NC(=O)c2cc(C(=O)N3CCC(O)CC3)ccn2)c1` [Compound 145, (S)-4-(4-hydroxypiperidine-1-carbonyl)-N-(3-(1-((4-methyl-4H-1,2,4-triazol-3-yl)thio)ethyl)phenyl)picolinamide], the negative logarithm of the IC50 (pIC50) is ≥ 5.00 at Cbl-b [1] and 5.52 to 6.00 at Cbl-b [2]. The compound further gave a negative-log Kd (pKd) on Cbl-b (residues 36-427) of 5.00 to 5.52.

As to `C[C@H](Sc1nncn1C)c1cccc(NC(=O)c2cc(C(=O)N3CC[C@@H](N)C3)ccn2)c1` [Compound 146, 4-((R)-3-aminopyrrolidine-1-carbonyl)-N-(3-((S)-1-((4-methyl-4H-1,2,4-triazol-3-yl)thio)ethyl)phenyl)picolinamide], the pIC50 is ≥ 5.00 on Cbl-b [1] and 5.00 to 5.52 on Cbl-b [2]. For the same compound, at Cbl-b (residues 36-427), the pKd was 5.00 to 5.52.

For the compound `C[C@H](Sc1nncn1C)c1cccc(NC(=O)c2cc(C(=O)N3CC[C@H](N)C3)ccn2)c1` [Compound 147, 4-((S)-3-aminopyrrolidine-1-carbonyl)-N-(3-((S)-1-(4-methyl-4H-1,2,4-triazol-3-ylthio)ethyl)phenyl)picolinamide], the negative-log IC50 (pIC50) on Cbl-b [1] was ≥ 5.00; on Cbl-b [2] it was 5.00 to 5.52. On Cbl-b (residues 36-427), this compound gave a negative logarithm of the Kd (pKd) of 5.00 to 5.52.

As to `C[C@H](Sc1nncn1C)c1cccc(NC(=O)c2cc(C(=O)N3CCC[C@@H](O)C3)ccn2)c1` [Compound 149, 4-((R)-3-hydroxypiperidine-1-carbonyl)-N-(3-((S)-1-((4-methyl-4H-1,2,4-triazol-3-yl)thio)ethyl)phenyl)picolinamide], the pIC50 at Cbl-b [1] is ≥ 5.00; on Cbl-b [2], 5.00 to 5.52. In addition, at Cbl-b (residues 36-427), the pKd is < 5.00.

Take `C[C@H](Sc1nncn1C)c1cccc(NC(=O)c2cc(C(=O)N3CCC[C@H](O)C3)ccn2)c1` [Compound 150, 4-((S)-3-hydroxypiperidine-1-carbonyl)-N-(3-((S)-1-((4-methyl-4H-1,2,4-triazol-3-yl)thio)ethyl)phenyl)picolinamide]: the pIC50 on Cbl-b [1] is ≥ 5.00; at Cbl-b [2] it was 5.00 to 5.52. The pKd on Cbl-b (residues 36-427) is < 5.00.
